For 28 compounds, EC50 results are on record in patent US20240018145A1, “[…]-DEPENDENT EN[…] TREATING OR […]” (priority 2020, published 2024).

By EC50 is commonly meant the concentration needed to bring the measured effect to its halfway point.

Where two headings read alike, the source gives them in different places. Bounds are passed on as bounds.

This experiment relates to FLU A (PR/8/34). The experiment can be described thus: Flu A Neuraminidase Antiviral Assay. Format: cell-based.

Compound `CN1C(=O)c2c(O)c(=O)ccn2N2C(c3ccccc3C(F)(F)F)CCC12` (single isomer, unassigned) [Compound 15A, 6-hydroxy-4-methyl-1-(2-(trifluoromethyl)phenyl)-2,3,3a,4-tetrahydro-1H-pyrido[2,1-f]pyrrolo[1,2-b][1,2,4]triazine-5,7-dione] yielded a 50% effective concentration (EC50) of over 8.1 µM.
`CN1C(=O)c2c(O)c(=O)ccn2N2C1CC[C@H](OCC=C(F)F)[C@@]2(C)c1ccccc1` (stereo partly shown) [Compound 151] gave a 50% effective concentration (EC50) (MDCK, 48 h) of over 0.81 µM.
In the case of `CN1C(=O)c2c(O)c(=O)ccn2N2C(c3cc(F)ccc3C(F)(F)F)CCCC12` (single isomer, unassigned) [Compound 13A, 1-(5-fluoro-2-(trifluoromethyl)phenyl)-7-hydroxy-5-methyl-1,2,3,4,4a,5-hexahydro-dipyrido[1,2-b:2′,1′-f][1,2,4]triazine-6,8-dione], the EC50 is over 8.1 µM.
Regarding `CN1C(=O)c2c(O)c(=O)ccn2N2C1CCCC21CCc2ccccc21` (single isomer, unassigned) [Compound 21C, 7-hydroxy-5-methyl-2′,3,3′,4,4a,5-hexahydro-2H-spiro[dipyrido[1,2-b:2′,1′-f][1,2,4]triazine-1,1′-indene]-6,8-dione], a half-maximal response (EC50) required 1.6 µM.
For the compound `CCN1C(=O)c2c(O)c(=O)ccn2N2C1CCCC2(C)c1cccc(C)n1` (single isomer, unassigned) [Compound 53A, 5-ethyl-7-hydroxy-1-methyl-1-(6-methylpyridin-2-yl)-1,2,3,4,4a,5-hexahydrodipyrido[1,2-b:2′,1′-f][1,2,4]triazine-6,8-dione], the EC50 is over 0.81 µM.
Regarding `CN1C(=O)c2c(O)c(=O)ccn2N2C(c3ccccc3F)C(CC(F)F)CCC12` (single isomer, unassigned) [Compound 113B, 2-(2,2-difluoroethyl)-1-(2-fluorophenyl)-7-hydroxy-5-methyl-1,2,3,4,4a,5-hexahydrodipyrido[1,2-b:2′,1′-f][1,2,4]triazine-6,8-dione], the response was half-maximal at 0.0073 µM (EC50).
On the same count and under the same terms, to `Cc1cc(=O)c(O)c2n1N1C(c3ccccc3)C(CC(F)(F)F)CCC1N(C)C2=O` (single isomer, unassigned) [Compound 132B, 7-hydroxy-5,10-dimethyl-1-phenyl-2-(2,2,2-trifluoroethyl)-1,2,3,4,4a,5-hexahydrodipyrido[1,2-b:2′,1′-f][1,2,4]triazine-6,8-dione] belongs 0.0213 µM.
Turning to `CN1C(=O)c2c(O)c(=O)ccn2N2C(c3ccccc3)C(CC(C)(F)F)CCC12` (single isomer, unassigned) [Compound 126B, 2-(2,2-difluoropropyl)-7-hydroxy-5-methyl-1-phenyl-1,2,3,4,4a,5-hexahydrodipyrido[1,2-b:2′,1′-f][1,2,4]triazine-6,8-dione], the response was half-maximal at 0.0161 µM (EC50).
The same measure, in the same setting: in the case of `COc1ccccc1C1CCCC2N(C)C(=O)c3c(O)c(=O)ccn3N12` (single isomer, unassigned) [Compound 19B, 7-hydroxy-1-(2-methoxyphenyl)-5-methyl-1,2,3,4,4a,5-hexahydrodipyrido[1,2-b:2′,1′-f][1,2,4]triazine-6,8-dione] it was 0.348 µM; in that of `CCN1C(=O)c2c(O)c(=O)cc(COC)n2N2C(c3ccccc3)C(CC(F)(F)F)CCC12` (stereo not shown) [Compound 131E, 5-ethyl-7-hydroxy-10-(methoxymethyl)-1-phenyl-2-(2,2,2-trifluoroethyl)-1,2,3,4,4a,5-hexahydrodipyrido[1,2-b:2′,1′-f][1,2,4]triazine-6,8-dione], 0.0068 µM; in that of `CN1C(=O)c2c(O)c(=O)ccn2N2C(c3ccccc3)C(c3cc(F)c(F)cc3F)CCC12` (single isomer, unassigned) [Compound 86B, 7-hydroxy-5-methyl-1-phenyl-2-(2,4,5-trifluorophenyl)-1,2,3,4,4a,5-hexahydrodipyrido[1,2-b:2′,1′-f][1,2,4]triazine-6,8-dione], over 0.81 µM.
Still for that read-out and setting: to `CN1C(=O)c2c(O)c(=O)ccn2N2C(c3ccccc3)C(CCC3CC3)CCC12` (single isomer, unassigned) [Compound 115B, 2-(2-cyclopropylethyl)-7-hydroxy-5-methyl-1-phenyl-1,2,3,4,4a,5-hexahydrodipyrido[1,2-b:2′,1′-f][1,2,4]triazine-6,8-dione] belongs over 8.1 µM.
The same measure, in the same setting: in the case of `CN1C(=O)c2c(O)c(=O)ccn2N2C(c3ccccc3)C(Cc3ccccc3)CCC12` (single isomer, unassigned) [Compound 117B, 2-benzyl-7-hydroxy-5-methyl-1-phenyl-1,2,3,4,4a,5-hexahydrodipyrido[1,2-b:2′,1′-f][1,2,4]triazine-6,8-dione] it was 0.113 µM.
As for `Cc1cccc(F)c1C1C(CC(F)(F)F)CCC2N(C)C(=O)c3c(O)c(=O)ccn3N12` (single isomer, unassigned) [Compound 77D, 1-(2-fluoro-6-methylphenyl)-7-hydroxy-5-methyl-2-(2,2,2-trifluoroethyl)-1,2,3,4,4a,5-hexahydrodipyrido[1,2-b:2′,1′-f][1,2,4]triazine-6,8-dione], a half-maximal effect (EC50) was put at 0.0019 µM.
On the same count and under the same terms, to `CN1C(=O)c2c(O)c(=O)ccn2N2C(c3c(F)cccc3F)C(CC(F)(F)F)CCC12` (single isomer, unassigned) [Compound 123B, 1-(2,6-difluorophenyl)-7-hydroxy-5-methyl-2-(2,2,2-trifluoroethyl)-1,2,3,4,4a,5-hexahydrodipyrido[1,2-b:2′,1′-f][1,2,4] triazine-6,8-dione] belongs 0.0042 µM; to `CN1C(=O)c2c(O)c(=O)ccn2N2C(c3ccc(Cl)c(F)c3)CCCC12` (single isomer, unassigned) [Compound 3A, 1-(4-chloro-3-fluorophenyl)-7-hydroxy-5-methyl-1,2,3,4,4a,5-hexahydrodipyrido[1,2-b:2′,1′-f][1,2,4]triazine-6,8-dione], 1.02 µM.
The compound `CC(C)CCO[C@@H]1CC[C@H]2N(C)C(=O)c3c(O)c(=O)ccn3N2[C@@H]1c1ccccc1` [Compound 161, (1R,2R,4aS)-7-hydroxy-2-(isopentyloxy)-5-methyl-1-phenyl-1,2,3,4,4a,5-hexahydrodipyrido[1,2-b:2′,1′-f][1,2,4]triazine-6,8-dione] registered a half-maximal effective concentration (EC50) (MDCK, 48 h) of 0.12 µM.
`CN1C(=O)c2c(O)c(=O)ccn2N2C(c3ccccc3)C(CC(F)(F)F)CCC12C` (single isomer, unassigned) [Compound 111B, 7-hydroxy-4a,5-dimethyl-1-phenyl-2-(2,2,2-trifluoroethyl)-1,2,3,4,4a,5-hexahydrodipyrido[1,2-b:2′,1′-f][1,2,4]triazine-6,8-dione]: the response was half-maximal at 0.0033 µM (EC50).
As for `CCN1C(=O)c2c(O)c(=O)ccn2N2C1CCCC2(C)c1cccc(C2CC2)n1` (single isomer, unassigned) [Compound 55B, 1-(6-cyclopropylpyridin-2-yl)-5-ethyl-7-hydroxy-1-methyl-1,2,3,4,4a,5-hexahydrodipyrido[1,2-b:2′,1′-f][1,2,4]triazine-6,8-dione], it took 0.0185 µM to reach a half-maximal effect (EC50).
`CCN1C(=O)c2c(O)c(=O)ccn2N2C1CCCC2(C)c1cccc(C)n1` (single isomer, unassigned) [Compound 53B, 5-ethyl-7-hydroxy-1-methyl-1-(6-methylpyridin-2-yl)-1,2,3,4,4a,5-hexahydrodipyrido[1,2-b:2′,1′-f][1,2,4]triazine-6,8-dione]: the half-maximal effective concentration (EC50) came to 0.0083 µM.
For `CCC1(c2ccccc2)CCC2N(C)C(=O)c3c(O)c(=O)ccn3N21` (stereo not shown) [Compound 62A, 1-ethyl-6-hydroxy-4-methyl-1-phenyl-2,3,3a,4-tetrahydro-1H-pyrido[2,1-f]pyrrolo[1,2-b][1,2,4]triazine-5,7-dione], the EC50 (MDCK, 48 h) is over 8.1 µM.
`Cc1cccc(F)c1C1C(CC(F)(F)F)CCC2N(C)C(=O)c3c(O)c(=O)ccn3N12` (single isomer, unassigned) [Compound 77B, 1-(2-fluoro-6-methylphenyl)-7-hydroxy-5-methyl-2-(2,2,2-trifluoroethyl)-1,2,3,4,4a,5-hexahydrodipyrido[1,2-b:2′,1′-f][1,2,4]triazine-6,8-dione]: the EC50 came out at 0.0032 µM.
Same read-out and setting: in the case of `CN1C(=O)c2c(O)c(=O)ccn2N2C(c3ccccc3Cl)C(CCO)CCC12` (stereo not shown) [Compound 66B, 1-(2-chlorophenyl)-7-hydroxy-2-(2-hydroxyethyl)-5-methyl-1,2,3,4,4a,5-hexahydrodipyrido[1,2-b:2′,1′-f][1,2,4]triazine-6,8-dione] it was 0.182 µM; in that of `CC1(c2ccccn2)CCCC2N(CC(F)(F)F)C(=O)c3c(O)c(=O)ccn3N21` (single isomer, unassigned) [Compound 39B, 7-hydroxy-1-methyl-1-(pyridin-2-yl)-5-(2,2,2-trifluoroethyl)-1,2,3,4,4a,5-hexahydrodipyrido[1,2-b:2′,1′-f][1,2,4]triazine-6,8-dione], 0.0101 µM.
On the same count and under the same terms, to `CC1(c2ncc(F)cc2F)CCCC2N(CC(F)F)C(=O)c3c(O)c(=O)ccn3N21` (single isomer, unassigned) [Compound 47B, 5-(2,2-difluoroethyl)-1-(3,5-difluoropyridin-2-yl)-7-hydroxy-1-methyl-1,2,3,4,4a,5-hexahydrodipyrido[1,2-b:2′,1′-f][1,2,4]triazine-6,8-dione] belongs 4.38 µM.
`COCCC1CCC2N(C)C(=O)c3c(O)c(=O)ccn3N2C1c1ccccc1Cl` (stereo not shown) [Compound 67, 1-(2-chlorophenyl)-7-hydroxy-2-(2-methoxyethyl)-5-methyl-1,2,3,4,4a,5-hexahydrodipyrido[1,2-b:2′,1′-f][1,2,4]triazine-6,8-dione] had an EC50 (MDCK, 48 h) of 0.0164 µM.
In turn, `CC1(c2ccccc2)CCCC2N(CC(F)(F)F)C(=O)c3c(O)c(=O)ccn3N21` (single isomer, unassigned) [Compound 34B, 7-hydroxy-1-methyl-1-phenyl-5-(2,2,2-trifluoroethyl)-1,2,3,4,4a,5-hexahydrodipyrido[1,2-b:2′,1′-f][1,2,4]triazine-6,8-dione] showed an EC50 of 0.0049 µM.
`O=C1c2c(O)c(=O)ccn2N2C(c3ccccc3)C(CCC(F)(F)F)CCC2N1CC1CC1` (single isomer, unassigned) [Compound 100A, 5-(cyclopropylmethyl)-7-hydroxy-1-phenyl-2-(3,3,3-trifluoropropyl)-1,2,3,4,4a,5-hexahydrodipyrido[1,2-b:2′,1′-f][1,2,4]triazine-6,8-dione] had an EC50 of over 0.81 µM.
